Laboratory results published in publication PMC5218480 (PLoS ONE, 2017).

System: MV-4-11 cells
Test: Gene expression microarray analysis (Affymetrix PrimeView) and GSEA
Format: cell-based, human
Design: RFU PODN (11730768_x_at) / Fold change /veh PODN (11730768_x_at) / RFU LINC00158 (11744669_a_at) / Fold change /veh LINC00158 (11744669_a_at) / RFU DUSP10 (11751237_a_at) / Fold change /veh DUSP10 (11751237_a_at) / RFU ID3 (11757404_x_at) / Fold change /veh ID3 (11757404_x_at) / RFU PLEKHG5 (11737974_s_at) / Fold change /veh PLEKHG5 (11737974_s_at) / RFU LRRC4B (11730491_at) / Fold change /veh LRRC4B (11730491_at) / RFU GIMAP4 (11747438_a_at) / Fold change /veh GIMAP4 (11747438_a_at) / RFU KRT8 (11758183_x_at) / Fold change /veh KRT8 (11758183_x_at) / RFU CNN1 (11734310_a_at) / Fold change /veh CNN1 (11734310_a_at) / RFU VPS37D (11726825_at) / Fold change /veh VPS37D (11726825_at) / RFU C10orf10 (11716522_x_at) / Fold change /veh C10orf10 (11716522_x_at) / RFU KIR2DL2 /// KIR2DL4 /// KIR2DL5A /// KIR2DL5B /// KIR2DS1 /// KIR2DS2 /// KIR2DS3 /// KIR2DS4 /// KIR3DL3 /// KIR3DL3 /// KIR3DS1 (11738374_at) / Fold change /veh KIR2DL2 /// KIR2DL4 /// KIR2DL5A /// KIR2DL5B /// KIR2DS1 /// KIR2DS2 /// KIR2DS3 /// KIR2DS4 /// KIR3DL3 /// KIR3DL3 /// KIR3DS1 (11738374_at) / RFU C1QL1 (11718748_at) / Fold change /veh C1QL1 (11718748_at) / RFU TMPRSS4 (11747572_a_at) / Fold change /veh TMPRSS4 (11747572_a_at) / RFU HAMP (11756126_x_at) / Fold change /veh HAMP (11756126_x_at) / RFU RNFT2 (11725882_a_at) / Fold change /veh RNFT2 (11725882_a_at) / RFU NR4A2 (11747474_a_at) / Fold change /veh NR4A2 (11747474_a_at) / RFU ABCC12 (11746883_a_at) / Fold change /veh ABCC12 (11746883_a_at) / RFU TMEM136 (11760407_x_at) / Fold change /veh TMEM136 (11760407_x_at) / RFU CLDN22 /// WWC2 (11732394_at) / Fold change /veh CLDN22 /// WWC2 (11732394_at) / RFU HLA-DPB1 (11760878_x_at) / Fold change /veh HLA-DPB1 (11760878_x_at) / RFU SPINT1 (11716480_a_at) / Fold change /veh SPINT1 (11716480_a_at) / RFU GAP43 (11754022_s_at) / Fold change /veh GAP43 (11754022_s_at) / RFU A4GNT (11735810_at) / Fold change /veh A4GNT (11735810_at) / RFU PRB3 (11715151_x_at) / Fold change /veh PRB3 (11715151_x_at) / RFU TUBB4B (11761932_at) / Fold change /veh TUBB4B (11761932_at) / RFU CAPN14 (11732068_a_at) / Fold change /veh CAPN14 (11732068_a_at) / RFU TMCC2 (11721928_a_at) / Fold change /veh TMCC2 (11721928_a_at) / RFU IRGQ (11745062_a_at) / Fold change /veh IRGQ (11745062_a_at) / RFU FAM174B (11720279_a_at) / Fold change /veh FAM174B (11720279_a_at) / RFU TMPRSS4 (11748680_a_at) / Fold change /veh TMPRSS4 (11748680_a_at) / RFU FAM212B (11763350_a_at) / Fold change /veh FAM212B (11763350_a_at) / RFU PLEKHG5 (11743358_a_at) / Fold change /veh PLEKHG5 (11743358_a_at) / RFU ZSCAN30 (11745921_a_at) / Fold change /veh ZSCAN30 (11745921_a_at) / RFU CMKLR1 (11741424_a_at) / Fold change /veh CMKLR1 (11741424_a_at) / RFU LOC101060620 /// MAPK8IP1 (11723275_at) / Fold change /veh LOC101060620 /// MAPK8IP1 (11723275_at) / RFU SPTSSB (11747773_x_at) / Fold change /veh SPTSSB (11747773_x_at) / RFU PRSS12 (11739890_at) / Fold change /veh PRSS12 (11739890_at) / RFU BIN1 (11741810_x_at) / Fold change /veh BIN1 (11741810_x_at) / RFU WNT11 (11732464_a_at) / Fold change /veh WNT11 (11732464_a_at) / RFU C10orf10 (11716521_a_at) / Fold change /veh C10orf10 (11716521_a_at) / RFU C5orf56 (11738089_at) / Fold change /veh C5orf56 (11738089_at) / RFU CYB561 (11721691_x_at) / Fold change /veh CYB561 (11721691_x_at) / RFU ANKRD19P (11752326_a_at) / Fold change /veh ANKRD19P (11752326_a_at) / RFU OR2T12 /// OR2T33 /// OR2T8 (11738714_s_at) / Fold change /veh OR2T12 /// OR2T33 /// OR2T8 (11738714_s_at) / RFU VCAN (11748164_a_at) / Fold change /veh VCAN (11748164_a_at) / RFU JSRP1 (11732532_at) / Fold change /veh JSRP1 (11732532_at) / RFU KRTAP10-11 (11738290_x_at) / Fold change /veh KRTAP10-11 (11738290_x_at) / RFU MYO3A (11730013_a_at) / Fold change /veh MYO3A (11730013_a_at) / RFU EBF3 (11725865_a_at) / Fold change /veh EBF3 (11725865_a_at) / RFU CAMK2N1 (11719241_x_at) / Fold change /veh CAMK2N1 (11719241_x_at) / RFU C5orf56 (11738088_a_at) / Fold change /veh C5orf56 (11738088_a_at) / RFU OLFML3 (11715873_a_at) / Fold change /veh OLFML3 (11715873_a_at) / RFU LOC100653217 /// NTM (11731650_a_at) / Fold change /veh LOC100653217 /// NTM (11731650_a_at) / RFU MAPK11 (11762145_a_at) / Fold change /veh MAPK11 (11762145_a_at) / RFU FIZ1 (11724087_x_at) / Fold change /veh FIZ1 (11724087_x_at) / RFU OASL (11726364_x_at) / Fold change /veh OASL (11726364_x_at) / RFU SOX15 (11748057_x_at) / Fold change /veh SOX15 (11748057_x_at) / RFU CD79A (11719716_a_at) / Fold change /veh CD79A (11719716_a_at) / RFU HIST1H1D (11736915_at) / Fold change /veh HIST1H1D (11736915_at) / RFU CASKIN2 (11723855_a_at) / Fold change /veh CASKIN2 (11723855_a_at) / RFU LOC730098 (11760151_x_at) / Fold change /veh LOC730098 (11760151_x_at) / RFU OR4N2 (11742367_at) / Fold change /veh OR4N2 (11742367_at) / RFU PRRT2 (11749266_a_at) / Fold change /veh PRRT2 (11749266_a_at) / RFU SNX32 (11753110_a_at) / Fold change /veh SNX32 (11753110_a_at) / RFU CDHR5 (11726645_a_at) / Fold change /veh CDHR5 (11726645_a_at) / RFU RCAN1 (11760418_a_at) / Fold change /veh RCAN1 (11760418_a_at) / RFU FAM167A (11723789_a_at) / Fold change /veh FAM167A (11723789_a_at) / RFU FAM26E (11764081_at) / Fold change /veh FAM26E (11764081_at) / RFU ISYNA1 (11749810_s_at) / Fold change /veh ISYNA1 (11749810_s_at) / RFU ACY1 (11761880_at) / Fold change /veh ACY1 (11761880_at) / RFU 11764098_at / Fold change /veh 11764098_at / RFU SAMD14 (11745864_x_at) / Fold change /veh SAMD14 (11745864_x_at) / RFU NPB (11741838_a_at) / Fold change /veh NPB (11741838_a_at) / RFU TMPRSS6 (11731388_a_at) / Fold change /veh TMPRSS6 (11731388_a_at) / RFU KRTAP10-2 (11738614_at) / Fold change /veh KRTAP10-2 (11738614_at) / RFU ARHGAP8 /// PRR5-ARHGAP8 (11727945_x_at) / Fold change /veh ARHGAP8 /// PRR5-ARHGAP8 (11727945_x_at) / RFU KRTAP5-7 /// NADSYN1 (11734609_at) / Fold change /veh KRTAP5-7 /// NADSYN1 (11734609_at) / RFU RASL12 (11751679_a_at) / Fold change /veh RASL12 (11751679_a_at) / RFU CDKN2B (11736163_a_at) / Fold change /veh CDKN2B (11736163_a_at) / RFU PRF1 (11729649_at) / Fold change /veh PRF1 (11729649_at) / RFU, ZNF638 /// ZNF638-IT1 / Fold change vs veh, ZNF638 /// ZNF638-IT1 / RFU, PANK3 / Fold change vs veh, PANK3 / RFU, SH3YL1 / Fold change vs veh, SH3YL1 / RFU, ZEB2 / Fold change vs veh, ZEB2 / RFU, NRIP1 / Fold change vs veh, NRIP1 / RFU, PTTG1IP / Fold change vs veh, PTTG1IP / RFU, CAPN2 / Fold change vs veh, CAPN2 / RFU, MED14 / Fold change vs veh, MED14 / RFU, SNORA58 / Fold change vs veh, SNORA58 / RFU, C1orf63 / Fold change vs veh, C1orf63 / RFU, LRRFIP1 / Fold change vs veh, LRRFIP1 / RFU, NDUFAF7 / Fold change vs veh, NDUFAF7 / RFU, SLC12A2 / Fold change vs veh, SLC12A2 / RFU, IBTK / Fold change vs veh, IBTK / RFU, ESF1 / Fold change vs veh, ESF1 / Fold change vs veh, TMEM50B / RFU, TAOK1 / Fold change vs veh, TAOK1 / RFU, ACBD3 / Fold change vs veh, ACBD3 / RFU, TMA16 / Fold change vs veh, TMA16 / RFU, RWDD3 / Fold change vs veh, RWDD3 / RFU, BCAT1 / Fold change vs veh, BCAT1 / RFU, EDEM3 / Fold change vs veh, EDEM3 / RFU, TMEM33 / Fold change vs veh, TMEM33 / RFU, WDR75 / Fold change vs veh, WDR75 / RFU, AHCTF1 / Fold change vs veh, AHCTF1 / RFU, TFRC / Fold change vs veh, TFRC / RFU, ZDHHC17 / Fold change vs veh, ZDHHC17 / RFU, NOM1 / Fold change vs veh, NOM1 / RFU, ARL8B / Fold change vs veh, ARL8B / RFU, ZBTB11 / Fold change vs veh, ZBTB11 / RFU, TAMM41 / Fold change vs veh, TAMM41 / RFU, KIAA1704 /// LOC100996395 / Fold change vs veh, KIAA1704 /// LOC100996395 / RFU, ING1 / Fold change vs veh, ING1 / RFU, TRMT61B / Fold change vs veh, TRMT61B / RFU, FUBP3 / Fold change vs veh, FUBP3 / RFU, TP53 / Fold change vs veh, TP53 / RFU, TNKS2 / Fold change vs veh, TNKS2 / RFU, ZFP14 / Fold change vs veh, ZFP14 / RFU, ACTR2 / Fold change vs veh, ACTR2 / RFU, PPP3R1 / Fold change vs veh, PPP3R1 / RFU, PIK3R1 / Fold change vs veh, PIK3R1 / RFU, HNRNPA1 / Fold change vs veh, HNRNPA1 / RFU, RNF170 / Fold change vs veh, RNF170 / RFU, ZNF28 / Fold change vs veh, ZNF28 / RFU, RNGTT / Fold change vs veh, RNGTT / RFU, OGT / Fold change vs veh, OGT / RFU, BRD1 / Fold change vs veh, BRD1 / RFU, MARS / Fold change vs veh, MARS / RFU, ZNF655 / Fold change vs veh, ZNF655 / RFU, FAHD1 / Fold change vs veh, FAHD1 / RFU, BDP1 / Fold change vs veh, BDP1 / RFU, LRRCC1 / Fold change vs veh, LRRCC1 / RFU, ARID1A / Fold change vs veh, ARID1A / RFU, ZNF146 / Fold change vs veh, ZNF146 / RFU, ZNF330 / Fold change vs veh, ZNF330 / RFU, GPN3 / Fold change vs veh, GPN3 / RFU, C9orf123 / Fold change vs veh, C9orf123 / RFU, N4BP2L2 / Fold change vs veh, N4BP2L2 / RFU, ARFIP1 / Fold change vs veh, ARFIP1 / RFU, FAM179B / Fold change vs veh, FAM179B / RFU, BCL10 / Fold change vs veh, BCL10 / RFU, UHRF1BP1L / Fold change vs veh, UHRF1BP1L / RFU, BET1 / Fold change vs veh, BET1 / RFU, CNOT2 / Fold change vs veh, CNOT2 / RFU, ZNF268 / Fold change vs veh, ZNF268 / Fold change vs veh, ZNF507 / RFU, DGCR2 / Fold change vs veh, DGCR2 / RFU, WDSUB1 / Fold change vs veh, WDSUB1 / Fold change vs veh, HSP90B1 /// MIR3652 / RFU, ADSS / Fold change vs veh, ADSS / RFU, GK / Fold change vs veh, GK / RFU, ZNF148 / Fold change vs veh, ZNF148 / RFU, TAF9 / Fold change vs veh, TAF9 / RFU, SLC1A5 / Fold change vs veh, SLC1A5 / RFU, SLMO2 / Fold change vs veh, SLMO2 / RFU, ABCC4 / Fold change vs veh, ABCC4 / RFU, LOC101060439 /// RAP1B / Fold change vs veh, LOC101060439 /// RAP1B / RFU, RFX7 / Fold change vs veh, RFX7 / RFU, GTPBP10 / Fold change vs veh, GTPBP10 / RFU, CNEP1R1 / Fold change vs veh, CNEP1R1 / RFU, BIVM-ERCC5 /// ERCC5 / Fold change vs veh, BIVM-ERCC5 /// ERCC5 / RFU, ILF3 / Fold change vs veh, ILF3 / RFU 11762660_at / Fold change /veh 11762660_at / RFU VCAN (11757783_s_at) / Fold change /veh VCAN (11757783_s_at) / RFU DDX43 (11728927_at) / Fold change /veh DDX43 (11728927_at) / RFU KRT8 (11758188_x_at) / Fold change /veh KRT8 (11758188_x_at) / RFU NKD1 (11759106_at) / Fold change /veh NKD1 (11759106_at) / RFU SRD5A1 (11742802_a_at) / Fold change /veh SRD5A1 (11742802_a_at) / RFU TPSAB1 /// TPSB2 (11721975_s_at) / Fold change /veh TPSAB1 /// TPSB2 (11721975_s_at) / RFU GSTM3 (11746129_a_at) / Fold change /veh GSTM3 (11746129_a_at) / RFU IL23R (11737362_x_at) / Fold change /veh IL23R (11737362_x_at) / RFU TMEM51 (11727254_a_at) / Fold change /veh TMEM51 (11727254_a_at) / RFU PIWIL2 (11732686_x_at) / Fold change /veh PIWIL2 (11732686_x_at) / RFU ORM1 (11744905_x_at) / Fold change /veh ORM1 (11744905_x_at) / RFU CCDC152 (11743942_at) / Fold change /veh CCDC152 (11743942_at) / RFU ECM1 (11717891_a_at) / Fold change /veh ECM1 (11717891_a_at) / RFU IL23R (11748794_a_at) / Fold change /veh IL23R (11748794_a_at) / RFU TNFAIP8L3 (11732012_x_at) / Fold change /veh TNFAIP8L3 (11732012_x_at) / RFU MBOAT4 (11741988_at) / Fold change /veh MBOAT4 (11741988_at) / RFU 11764193_at / Fold change /veh 11764193_at / RFU TMEM53 (11763286_at) / Fold change /veh TMEM53 (11763286_at) / RFU MAGEB2 (11727129_at) / Fold change /veh MAGEB2 (11727129_at) / RFU TMEM200A (11744735_a_at) / Fold change /veh TMEM200A (11744735_a_at) / RFU CCDC152 (11751479_a_at) / Fold change /veh CCDC152 (11751479_a_at) / RFU FAM211A (11726209_a_at) / Fold change /veh FAM211A (11726209_a_at) / RFU RGS16 (11746705_a_at) / Fold change /veh RGS16 (11746705_a_at) / RFU VCAN (11755009_s_at) / Fold change /veh VCAN (11755009_s_at) / RFU RHOB (11743442_s_at) / Fold change /veh RHOB (11743442_s_at) / RFU RGS16 (11720943_a_at) / Fold change /veh RGS16 (11720943_a_at) / RFU RGS16 (11720944_at) / Fold change /veh RGS16 (11720944_at) / RFU, VPS4B / Fold change vs veh, VPS4B / RFU, CREB1 / Fold change vs veh, CREB1 / RFU, DNAJC13 / Fold change vs veh, DNAJC13 / RFU, GNAQ / Fold change vs veh, GNAQ / RFU, CDK5R1 / Fold change vs veh, CDK5R1 / RFU, ZRANB3 / Fold change vs veh, ZRANB3 / RFU, CUL4A / Fold change vs veh, CUL4A / RFU, CCNY / Fold change vs veh, CCNY / RFU, UFL1 / Fold change vs veh, UFL1 / RFU, COG3 / Fold change vs veh, COG3 / RFU, DIAPH2 / Fold change vs veh, DIAPH2 / RFU, SKA2 / Fold change vs veh, SKA2 / RFU, AFF3 / Fold change vs veh, AFF3 / RFU, LMF1 / Fold change vs veh, LMF1 / RFU, IPO11 / Fold change vs veh, IPO11 / RFU, DFFB / Fold change vs veh, DFFB / RFU, FOXP1 / Fold change vs veh, FOXP1 / RFU, CARD8 / Fold change vs veh, CARD8 / RFU, STRN3 / Fold change vs veh, STRN3 / RFU, ADK / Fold change vs veh, ADK / RFU, RASSF2 / Fold change vs veh, RASSF2 / RFU, WIPF1 / Fold change vs veh, WIPF1 / RFU, LARP1B / Fold change vs veh, LARP1B / RFU, RASA1 / Fold change vs veh, RASA1 / RFU, RB1 / Fold change vs veh, RB1 / RFU, PPFIA1 / Fold change vs veh, PPFIA1 / RFU, MAT2A / Fold change vs veh, MAT2A / RFU, CCT5 / Fold change vs veh, CCT5 / RFU, WDR92 / Fold change vs veh, WDR92 / RFU, CUX1 / Fold change vs veh, CUX1 / RFU, TTC7A / Fold change vs veh, TTC7A / RFU, TMEM135 / Fold change vs veh, TMEM135 / RFU, DEPTOR / Fold change vs veh, DEPTOR / RFU, CPM / Fold change vs veh, CPM / RFU, DNAJB6 / Fold change vs veh, DNAJB6 / RFU, CACNA2D3 / Fold change vs veh, CACNA2D3 / RFU, DTX4 / Fold change vs veh, DTX4 / RFU, TFCP2 / Fold change vs veh, TFCP2 / RFU, GMCL1 /// GMCL1P1 / Fold change vs veh, GMCL1 /// GMCL1P1 / RFU, AEBP2 / Fold change vs veh, AEBP2 / RFU, SNHG1 /// SNORD22 /// SNORD25 /// SNORD26 /// SNORD27 /// SNORD28 /// SNORD29 /// SNORD31 / Fold change vs veh, SNHG1 /// SNORD22 /// SNORD25 /// SNORD26 /// SNORD27 /// SNORD28 /// SNORD29 /// SNORD31 / Fold change (Aza/veh), C12orf56 (ProbeSet 11735607_a_at) / Fold change (ACY-1035/veh), C12orf56 (ProbeSet 11735607_a_at) / Fold change (Aza/veh), FGFR1OP (ProbeSet 11751329_s_at) / Fold change (ACY-1035/veh), FGFR1OP (ProbeSet 11751329_s_at) / Fold change (Aza/veh), VPS36 (ProbeSet 11739960_a_at) / Fold change (ACY-1035/veh), VPS36 (ProbeSet 11739960_a_at) / RFU SYPL1 (11715823_x_at) / Fold change /veh SYPL1 (11715823_x_at) / RFU IGFBP7 (11715501_s_at) / Fold change /veh IGFBP7 (11715501_s_at) / RFU REEP3 (11722064_at) / Fold change /veh REEP3 (11722064_at) / RFU IGLL1 (11728026_x_at) / Fold change /veh IGLL1 (11728026_x_at): dose or concentration left out as unconfirmed
Settings: MV-4-11 cells, 48 hours

Nc1ncn([C@@H]2O[C@H](CO)[C@@H](O)[C@H]2O)c(=O)n1 [azacitidine]
RFU IRGQ (11745062_a_at): 24.06 RFU
